These results are taken from patent US10815233B2, “Dihydroindolizinone derivative” (ONO PHARMACEUTICAL CO., LTD., priority 2014, dated 2020).

A word on the pIC50: it is the negative decadic logarithm of the IC50, by convention in mol/L. As usually defined, the AUC is concentration integrated over time.

pIC50: −log10 of the molar value.

For series [1], the target named is T1, human blood coagulation factor XIa (Homo sapiens, UniProt P03951).
T1 construct: human blood coagulation factor XIa (Haematologic Technologies Inc.); purchased Haematologic Technologies Inc
T1 sequence (P03951 388-625 limits assumed): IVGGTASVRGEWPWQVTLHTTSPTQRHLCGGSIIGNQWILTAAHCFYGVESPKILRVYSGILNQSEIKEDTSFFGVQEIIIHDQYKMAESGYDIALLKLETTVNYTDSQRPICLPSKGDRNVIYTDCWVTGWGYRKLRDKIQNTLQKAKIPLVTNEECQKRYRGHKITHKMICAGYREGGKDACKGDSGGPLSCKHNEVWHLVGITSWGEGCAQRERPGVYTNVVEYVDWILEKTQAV
T1 sequence (P03951 19-387 partner limits assumed): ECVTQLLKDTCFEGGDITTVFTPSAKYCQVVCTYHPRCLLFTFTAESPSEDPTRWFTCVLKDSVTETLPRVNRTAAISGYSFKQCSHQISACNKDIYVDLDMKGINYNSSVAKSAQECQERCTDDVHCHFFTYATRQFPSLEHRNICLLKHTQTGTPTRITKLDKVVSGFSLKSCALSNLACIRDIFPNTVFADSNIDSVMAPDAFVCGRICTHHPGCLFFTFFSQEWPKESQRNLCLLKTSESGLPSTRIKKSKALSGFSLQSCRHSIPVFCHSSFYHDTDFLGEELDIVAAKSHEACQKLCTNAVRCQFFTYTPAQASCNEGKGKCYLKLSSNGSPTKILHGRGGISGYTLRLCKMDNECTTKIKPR
Briefly: Inhibitory activity on human blood coagulation factor XIa (chromogenic substrate S-2366). Format: biochemical. Conditions: chromogenic substrate S-2366, 37° C.; read-out: FXIa inhibitory activity IC50. On the procedure:
Inhibitory activities of the compound of the present invention on human blood coagulation factor XIa, factor VIIa, factor IXa, factor Xa, factor XIIa, plasma kallikrein and thrombin were evaluated. A chromogenic substrate solution was added to each of enzyme solutions, the absorbance at 405 nm was measured continuously at 37° C. for 5 minutes at intervals of 15 seconds, and the decomposition rate of each of substrates (mOD/min) was calculated. The half maximal (50%) inhibitory concentration (IC50) of the compound of the present invention on each of the enzymes was calculated by linear regression by using least-squares method from the concentration of the compound of the present invention which was converted in terms of natural logarithm and the rate of enzyme inhibition calculated according to the following equation.
The rate of enzyme inhibition (%) of the compound of the present invention was calculated by using the following equation: Rate of enzyme inhibition (%)=100×{(Cont(e)−BL(e))−(Comp(e)−BL(e))/(Cont(e)−BL(e))}
Cont (e): Decomposition rate of substrate (mOD/min) when enzyme solution and substrate solution were added to physiological saline containing 5% dimethyl sulfoxide
Comp (e): Decomposition rate of substrate (mOD/min) when enzyme solution and substrate solution were added to physiological saline containing 5% dimethyl sulfoxide and the compound of the present invention
The inhibitory activity on human blood coagulation factor XIa (Haematologic Technologies Inc.) was measured by using the enzyme solution adjusted to 0.1 U/mL by a buffer solution containing 300 mM of NaCl, 10 mM of KCl, 2 mg/mL of PEG 6000 and 100 mM of HEPES-NaOH (pH 7.4) as well as S-2366 (pyroglu-Pro-Arg-pNA, CHROMOGENIX) adjusted to 1 mM by distilled water.

The nature of series [2]: Pharmacokinetic (PK) tests in rats. The series is classed as in vivo. Conditions: for concentration at 8 h: male, Crj:CD(SD), oral, 8 hours after administration, read-out: Plasma concentration C8h; for concentration at 8 h / AUC: rat, plasma; for concentration at 8 h / APTT × 2 maintaining time / C8h/APTT × 2: rats; for concentration at 8 h / AUC / C8h/APTT × 2: 1 mg/kg per os; for AUC: po, fasted male Crj:CD(SD) rats; for APTT × 2 maintaining time: 1 mg/kg orally, period when plasma concentration exceeded APTT×2; for C8h/APTT × 2: C8h divided by APTT×2. On the procedure:
The compound of the present invention was administered to fasted male Crj:CD(SD) rats by intravenous injection as a single intravenous dose of 0.1 mg/kg (vehicle: 20% HP-β-CD solution) and by forced oral dosage as a dose of 1 mg/kg per os (vehicle: 0.5% methylcellulose solution). Blood samples were collected from cervical vein into heparinized syringes at 0.08, 0.25, 0.5, 1, 3 or 7 hours after administration by intravenous injection or 0.08, 0.25, 0.5, 1, 2, 4, 6, 8 or 24 hours after oral administration. Plasma was obtained by centrifugation, and plasma was stored at −20° C. until measurement of plasma concentration.
In order to measure the plasma concentration of the compound of the present invention, the plasma sample was subjected to deproteinization by using acetonitrile, was filtrated by using a filter, and thereafter, was diluted with purified water, and then was analyzed by LC/MS/MS. A column for analysis (Shim-pack XR-ODSII, 2.0 mm×75 mm, 2.2 μm) and mobile phases (0.1% formic acid in water and 0.1% formic acid in acetonitrile, flow rate: 0.5 mL/min) were used. The system was used by detection of cations in the Multiple Reaction Monitoring (MRM) mode.
The area under the blood concentration versus time curve (AUC) and the bioavailability (BA) of the compound of the present invention were calculated. In addition, as indices of the maintaining time of the anticoagulation activity in the case of oral administration, AUC/APTT×2, which is obtained by dividing AUC by APTT×2, and C8h/APTT×2, which is obtained by dividing C8h (the plasma concentration at 8 hours after administration) by APTT×2, were calculated.
In addition, the period of time when the compound concentration in plasma of the compound of the present invention exceeded APTT×2 (the APTT×2 maintaining time) was calculated from the change in the compound concentration in plasma in the case when the compound of the present invention was orally administered at a dose of 1 mg/kg. The longer the APTT×2 maintaining time is, the longer the period of time is when the anticoagulation activity is maintained after oral administration.

The next series concerns standard human plasma. In words: Activated partial thromboplastin time (APTT) in standard human plasma. The series is classed as biochemical. The conditions noted are these: concentration required for doubling the coagulation time vs vehicle (1% DMSO). The protocol: Activated partial thromboplastin time (APTT) and prothrombin time (PT) were measured by using a fully automatic device for measuring blood coagulation (CA-1500, Sysmex Corporation). On APTT or PT measurement, standard human plasma for the blood coagulation tests (Siemens Healthcare Diagnostics GmbH) was mixed with a diluted solution of the compound of the present invention, and thereafter, APTT reagent (Siemens Healthcare Diagnostics GmbH) and 0.02 M of calcium chloride or PT reagent (Siemens Healthcare Diagnostics GmbH) were automatically added to the mixture in order to initiate clot formation. The anticoagulation activity (APTT×2 or PT×2) of the compound of the present invention was expressed as a concentration required for doubling the coagulation time in the vehicle (1% DMSO) group. APTT×2 or PT×2 was determined by plotting the concentration of the compound of the present invention against a twofold increase in the coagulation time.

For the compound `Nc1ccc(-c2nc(F)c([C@@H]3CCc4cc(-c5cc(Cl)ccc5-n5cnnn5)cc(=O)n43)[nH]2)c(F)n1` [Example 2 (10), (3S)-3-[2-(6-Amino-2-Fluoro-3-Pyridinyl)-4-Fluoro-1H-Imidazol-5-Yl]-7-[5-Chloro-2-(1H-Tetrazol-1-Yl)Phenyl]-2,3-Dihydro-5(1H)-Indolizinone], the pIC50 in series [1] is 8.77. In series [2], the concentration at 8 h is 1000 nM, the AUC is 15 µM·h, the “APTT × 2 maintaining time” value is >8 h and the “C8h/APTT × 2” value was 2.1. The “APTT ×” value with standard human plasma was 0.49 µM.
For `Nc1ccc(-c2nc(F)c([C@@H]3CCc4nc(-c5cc(Cl)ccc5-n5cnnn5)cc(=O)n43)[nH]2)c(F)n1` [Example 3 (4), (6S)-6-[2-(6-Amino-2-Fluoro-3-Pyridinyl)-4-Fluoro-1H-Imidazol-5-Yl]-2-[5-Chloro-2-(1H-Tetrazol-1-Yl)Phenyl]-7,8-Dihydropyrrolo[1,2-a]Pyrimidin-4(6H)-One], the pIC50 in series [1] is 8.72. In addition, in series [2], the concentration at 8 h was 1600 nM, the AUC came to 28 µM·h, the “APTT × 2 maintaining time” value was >8 h and the “C8h/APTT × 2” value was 3.4. Besides, the “APTT ×” value in the series with standard human plasma was 0.47 µM.
As to `N#Cc1cn(-c2ccc(Cl)cc2-c2cc3n(c(=O)c2)[C@H](c2nc(F)c(-c4ccc(N)cc4)[nH]2)CC3)nn1` [Example 4 (10), 1-(2-{(3S)-3-[5-(4-aminophenyl)-4-fluoro-1H-imidazol-2-yl]-5-oxo-1,2,3,5-tetrahydro-7-indolizinyl}-4-chlorophenyl)-1H-1,2,3-triazole-4-carbonitrile], the pIC50 in series [1] is 8.27. For the same compound, in series [2], the concentration at 8 h turned out to be 2500 nM, the AUC was found to be 45 µM·h, the “APTT × 2 maintaining time” value is recorded as >8 h and the “C8h/APTT × 2” value stood at 1.4. In addition, the “APTT ×” value with standard human plasma is 1.8 µM.
